These results are taken from US8409580B2, “Therapeutic vaccine targeted against P-glycoprotein 170 for inhibiting multidrug resistance in the treatment of cancers” (AC Immune SA, priority 2003, dated 2013).

One data set relates to cancer cells. The note with it: by means of an increase in the invasive potential of the cancer cells; cited from earlier work.
The next data set concerns P388R cells. The note with it: mice, same cancer model, 100 mg/kg/day (Pierré et al. 1992); cited from earlier work.
The conditions of data set [1]: trials for treatment of multidrug resistance (Stupp et al. 1998); cited from earlier work.
A further data set deals with mice. As to the kind of experiment: Immunogenicity of di- and tetrapalmitoylated conjugates in liposomes: antibody detection by Dot Blot and antibody titer. The data set is classed as in vivo. The text has this: In order to further understand the degree of immunogenicity of the conjugates according to the invention, two types of conjugates were produced and tested. The first type of conjugate corresponds to the synthetic sequences of the peptides derived from the extracellular loops of the murine P-170 protein, covalently coupled to four molecules of fatty acid containing a carbon chain of between C12 and C24, per molecule of peptide. The second type of conjugate is made up of a peptide coupled only to two molecules of fatty acid. This study is illustrated by means of a specific example of dipalmitoylated and tetrapalmitoylated conjugates.
Table III describes the sequences of the di- and tetrapalmitoylated conjugates corresponding to loops 1, 2 and 4 of the murine P-170 protein and also their immunogenic capacity measured through the detection of antibodies by the Dot Blot technique and also the antibody titer by fluorescence units. […] The mpp4 and mpp2 conjugates engender an immune response with an antibody titer in the region of 400 fluorescence units. […] In fact, the synthesis of this loop is very hard and long since there are many possible chemical terminations, or chemical rebridging which could explain the lack of immune response of this first batch of peptides. For the animal immunization trials, a further synthesis of the peptides, in particular of loop 1, was therefore carried out.
The conjugates according to the invention serving as antigenic molecules, diluted in PBS, are firstly deposited at ambient temperature onto nitrocellulose membranes. After 30 minutes, these antigenic molecules are blocked with 3 ml of a solution containing PBS-5% skim milk. The membranes are incubated for 2 hours at ambient temperature, without washing, with 24 μl of murine serum prediluted volume-for-volume with PBS, in 2 ml of PBS containing 1% of skim milk and 0.1% of tween 20. Said murine serum was taken during a period of 15 to 45 days after the third immunization. After three washes in PBS-1% skim milk-0.1% tween 20, the membranes are sequentially incubated for 1 hour at ambient temperature, in 3 ml of PBS-1% skim milk-0.1% tween 20 containing the peroxydase anti-mouse secondary antibody diluted to 1/3000, and then after 2 washes, in 3 ml of PBS-1% skim milk-0.1% tween 20. The membranes are then washed once for 10 minutes in PBS alone and kept in a refrigerator at 4° C. overnight, in 500 μl of PBS. A chemoluminescence peroxydase substrate (ECL™ kit, […] Pharmacie Biotech) is deposited at the surface of the membranes (0.125 ml/cm^2), and left for one minute, and the membranes are then drained off and placed in a “cold” cassette between 2 films of Saran®. The membranes are immediately exposed by autoradiography, the emitted light resulting from the reaction of oxidation of the luminol by the peroxydase being collected on KODAK X-OMAT films with varying times from a few minutes to 1 hour, depending on the strength of the signal. The antibody titers are estimated using a densitometer suitable for the above system. The sensitivity of the chemoluminescence reaction has a threshold for detection of the induced antibodies evaluated at 0.2 ng/ml under the experimental conditions.

A further data set has as its system B6D2F1 mice. As to the kind of experiment: Immune response in vivo in B6D2F1 mice immunized with the vaccine preparations (anti-mpp1, mpp2, mpp4 antibody isotypes, Dot Blot). The settings on record: further synthesis of the peptide; compared with mpp2 and mpp4. As to the method: The mice were immunized three times, two weeks apart, by intraperitoneal injection with 200 μl of vaccine composition. This experimental protocol is carried out for the four preparations on groups of nine B6D2F1 mice (Iffa Credo, L'Arbresle, France).
To quantify by Dot Blot the various immunoglobulins induced by the immunization, 100 μl of blood were taken, from each mouse, from the retroorbital sinus one day before the booster and 15 days after the final injection. Each blood sample was then centrifuged and the serum isolated was used for the quantification.
The conjugates according to the invention serving as antigenic molecules, diluted in PBS, are firstly deposited at ambient temperature onto nitrocellulose membranes. After 30 minutes, these antigenic molecules are blocked with 3 ml of a solution containing PBS-5% skim milk. The membranes are incubated for 2 hours at ambient temperature, without washing, with 24 μl of murine serum prediluted volume-for-volume with PBS, in 2 ml of PBS containing 1% of skim milk and 0.1% of tween 20. Said murine serum was taken during a period of 15 to 45 days after the third immunization. […] The sensitivity of the chemoluminescence reaction has a threshold for detection of the induced antibodies evaluated at 0.2 ng/ml under the experimental conditions. […]

[2] abbreviates: mice injected with liposomes containing the conjugate, first peptide synthesis.

Ends that are not written are not given here.

For the compound `OCCN1CCN(CC/C=C2\c3ccccc3Sc3ccc(C(F)(F)F)cc32)CC1` [trans-flupenthixol], the effect on mortality entry with cancer cells was “can accelerate mortality”.
For `C=CCNc1nc(NCC=C)nc(N2CCC(NCC(c3ccc(F)cc3)c3ccc(F)cc3)CC2)n1` [S9788, 6-[4-[2,2-di-(4-fluorophenyl)ethylamino]-1-piperidinyl]-N,N′-di-2-propenyl-1,3,5-triazine-2,4-diamine], the increase in survival with P388R cells is given as 49%. Further, the “toxicity limiting use in clinical trials” value in data set [1] is “cardiac toxicity, ventricular arrhythmia and torsade de pointe”.
In turn, “G-SRDDDMETKRQNEN-G-K-NH2 (GSRDDDMETKRQNENGK-NH2; also: two palmitic acids; listed as Mus musculus) [mpp′4]” showed an Ac titer fluorescence in the data set on mice (setting [2]) of 100 fluorescence units. Also, the “antibody titer relative to the titer induced by mpp4” value with mice (same sequence with two versus four palmityl residues) is given as “four times lower”.
For the compound “G-KVLTSFTNKELQAYAK-G-K-NH2 (GKVLTSFTNKELQAYAKGK-NH2; also: two palmitic acids; listed as Mus musculus) [mpp′2]”, the Ac titer fluorescence in the data set on mice (setting [2]) is on record as <10 fluorescence units.
On to “K-G-GNMTDSFTKAEASILPSITNQSGPNSTLIISNSSLEEE-G-K-K-NH2 (KGGNMTDSFTKAEASILPSITNQSGPNSTLIISNSSLEEEGKK-NH2; also: four palmitic acids; listed as Mus musculus) [mpp1]”, for which, in the data set with mice (setting [2]), the Ac titer fluorescence is on record as <10 fluorescence units and the “Detection of antibodies by Dot Blot” value is “no antibody was detected”. Moreover, the “antibody titers induced by the conjugate” value in the data set with B6D2F1 mice is “significant and comparable in value to the antibody titers detected for the mpp2 and mpp4 conjugates”.
